Reference: patent US9510598B2, “Nitrogen-containing heterocyclic compounds for plant disease control” (BAYER CROPSCIENCE AG, priority 2012, dated 2016)

assay type: physicochemical; settings: HPLC on reversed phase columns, method [a]: pH 2.7, 0.1% formic acid in water / acetonitrile, linear gradient 10% to 95% acetonitrile

SMILES | log P
C#Cc1cnc2c(Cl)cc(C3=NOC(OC)(C(=O)NC4CCC4)C3)cc2c1 (stereo not drawn) [compound 592] | 3.02[a]
C#Cc1cnc2c(Cl)cc(C3=NOC(OC)(C(=O)NCCCOCC)C3)cc2c1 (stereo not drawn) [compound 594] | 2.88[a]
C#Cc1cnc2ccc(C3=NOC(C)(C(=O)NC4CCN(C)CC4)C3)cc2c1 (stereo not drawn) [compound 598] | 1.17[a]
CCn1cc(CNC(=O)C2(OC)CC(c3cc(C)c4ncc(Br)cc4c3)=NO2)c(C)n1 (stereo not drawn) [compound 600] | 2.96[a]
COC1(C(=O)NCC2COC(C)(C)O2)CC(c2cc(C)c3ncc(Br)cc3c2)=NO1 (stereo not drawn) [compound 601] | 3.33[a]
COC1(C(=O)NC2CCC2)CC(c2cc(C)c3ncc(Br)cc3c2)=NO1 (stereo not drawn) [compound 603] | 3.58[a]
C#Cc1cnc2c(C)cc(C3=NOC(OC)(C(=O)NC(C)C)C3)cc2c1 (stereo not drawn) [compound 604] | 2.94[a]
C#Cc1cnc2c(C)cc(C3=NOC(OC)(C(=O)NCC4COC(C)(C)O4)C3)cc2c1 (stereo not drawn) [compound 605] | 2.92[a]
C#Cc1cnc2c(C)cc(C3=NOC(OC)(C(=O)NCCCOCC)C3)cc2c1 (stereo not drawn) [compound 607] | 3.00[a]
COC1(C(=O)NC(C)C)CC(c2cc(C)c3ncc(Br)cc3c2)=NO1 (stereo not drawn) [compound 608] | 3.37[a]
C#Cc1cnc2c(C)cc(C3=NOC(OC)(C(=O)NCc4cn(CC)nc4C)C3)cc2c1 (stereo not drawn) [compound 609] | 2.62[a]
C#Cc1cnc2c(C)cc(C3=NOC(OC)(C(=O)NCc4cn(CCC)nc4C)C3)cc2c1 (stereo not drawn) [compound 610] | 2.90[a]
C#Cc1cnc2c(C)cc(C3=NOC(OC)(C(=O)NCc4cnc(C)cn4)C3)cc2c1 (stereo not drawn) [compound 611] | 2.46[a]
C#Cc1cnc2c(C)cc(C3=NOC(OC)(C(=O)NC4CCC4)C3)cc2c1 (stereo not drawn) [compound 612] | 3.15[a]
C#Cc1cnc2ccc(C3=NOC(C(=O)NC(C)C)(C(F)F)C3)cc2c1 (stereo not drawn) [compound 616] | 2.73[a]
CC(C)NC(=O)C1(C(F)F)CC(c2ccc3ncc(I)cc3c2)=NO1 (stereo not drawn) [compound 620] | 3.17[a]
CC1(C)OCC(CNC(=O)C2(C(F)F)CC(c3ccc4ncc(Br)cc4c3)=NO2)O1 (stereo not drawn) [compound 622] | 2.96[a]
C#CC(C)(C)NC(=O)C1(C)CC(c2ccc3ncc(Br)cc3c2)=NO1 (stereo not drawn) [compound 624] | 3.08[a]
C#CC1(C(=O)NC2CCC2)CC(c2ccc3ncc(Br)cc3c2)=NO1 (stereo not drawn) [compound 625] | 3.11[a]
C#CC1(C(=O)NCc2cn(CC)nc2C)CC(c2ccc3ncc(Br)cc3c2)=NO1 (stereo not drawn) [compound 626] | 2.57[a]
C#CC1(C(=O)NCCCOCC)CC(c2ccc3ncc(Br)cc3c2)=NO1 (stereo not drawn) [compound 627] | 2.94[a]

SMILES | log P
C#CC1(C(=O)NCc2cnc(C)cn2)CC(c2ccc3ncc(Br)cc3c2)=NO1 (stereo not drawn) [compound 628] | 2.41[a]
C#Cc1cnc2ccc(C3=NOC(C)(C(=O)NCc4cn(C5CCCC5)nc4C)C3)cc2c1 (stereo not drawn) [compound 629] | 2.71[a]
Cc1nn(C2CCCC2)cc1CNC(=O)C1(C)CC(c2ccc3ncc(Br)cc3c2)=NO1 (stereo not drawn) [compound 630] | 3.04[a]
C#Cc1cnc2ccc(C3=NOC(C)(C(=O)NCc4ccc(OC)cn4)C3)cc2c1 (stereo not drawn) [compound 631] | 1.96[a]
C#Cc1cnc2ccc(C3=NOC(C)(C(=O)NCc4cn(C5CCC5)nc4C)C3)cc2c1 (stereo not drawn) [compound 632] | 2.63[a]
Cc1nn(C2CCC2)cc1CNC(=O)C1(C)CC(c2ccc3ncc(Br)cc3c2)=NO1 (stereo not drawn) [compound 633] | 2.92[a]
C#Cc1cnc2ccc(C3=NOC(C)(C(=O)NCc4cn(CC)nc4Br)C3)cc2c1 (stereo not drawn) [compound 634] | 2.56[a]
C#Cc1cnc2ccc(C3=NOC(C)(C(=O)NCc4cn(CC)nc4SC)C3)cc2c1 (stereo not drawn) [compound 635] | 2.51[a]
CCn1cc(CNC(=O)C2(C)CC(c3ccc4ncc(Br)cc4c3)=NO2)c(Br)n1 (stereo not drawn) [compound 636] | 2.86[a]
C#Cc1cnc2ccc(C3=NOC(C)(C(=O)NCc4cn(CC)nc4OC)C3)cc2c1 (stereo not drawn) [compound 637] | 2.35[a]
CCn1cc(CNC(=O)C2(C)CC(c3ccc4ncc(Br)cc4c3)=NO2)c(SC)n1 (stereo not drawn) [compound 638] | 2.78[a]
CCn1cc(CNC(=O)C2(C)CC(c3ccc4ncc(Br)cc4c3)=NO2)c(OC)n1 (stereo not drawn) [compound 639] | 2.63[a]
C#Cc1cnc2ccc(C3=NOC(C)(C(=O)NCCF)C3)cc2c1 (stereo not drawn) [compound 640] | 2.05[a]
CC1(C(=O)NCCF)CC(c2ccc3ncc(Br)cc3c2)=NO1 (stereo not drawn) [compound 641] | 2.30[a]
CC1(C(=O)NCc2ccncn2)CC(c2ccc3ncc(Br)cc3c2)=NO1 (stereo not drawn) [compound 642] | 2.01[a]
C#Cc1cnc2ccc(C3=NOC(C)(C(=O)NCc4nc(C)cc(C)n4)C3)cc2c1 (stereo not drawn) [compound 643] | 2.23[a]
COc1cccnc1CNC(=O)C1(C)CC(c2ccc3ncc(Br)cc3c2)=NO1 (stereo not drawn) [compound 644] | 2.26[a]
C#Cc1cnc2ccc(C3=NOC(C)(C(=O)NCc4ncccc4OC)C3)cc2c1 (stereo not drawn) [compound 645] | 2.01[a]
CC1(C(=O)NCc2cnn(CC(F)F)c2)CC(c2ccc3ncc(Br)cc3c2)=NO1 (stereo not drawn) [compound 646] | 2.42[a]
C#Cc1cnc2ccc(C3=NOC(C)(C(=O)NCc4cnn(CC(F)F)c4)C3)cc2c1 (stereo not drawn) [compound 647] | 2.17[a]

Other lines, results leading:

log P | SMILES
2.26[a] | C#Cc1cnc2ccc(C3=NOC(C)(C(=O)NCc4nc(C)cs4)C3)cc2c1 (stereo not drawn) [compound 648]
2.56[a] | Cc1csc(CNC(=O)C2(C)CC(c3ccc4ncc(Br)cc4c3)=NO2)n1 (stereo not drawn) [compound 649]
3.15[a] | C#Cc1cnc2ccc(C3=NOC(C)(C(=O)N(OC)C(C)C)C3)cc2c1 (stereo not drawn) [compound 650]
3.59[a] | CON(C(=O)C1(C)CC(c2ccc3ncc(Br)cc3c2)=NO1)C(C)C (stereo not drawn) [compound 651]
2.26[a] | C#Cc1cnc2ccc(C3=NOC(C)(C(=O)NCC(F)F)C3)cc2c1 (stereo not drawn) [compound 652]
2.56[a] | CC1(C(=O)NCC(F)F)CC(c2ccc3ncc(Br)cc3c2)=NO1 (stereo not drawn) [compound 653]
2.96[a] | C#Cc1cnc2ccc(C3=NOC(C)(C(=O)NCc4cn(CCCCC)nc4C)C3)cc2c1 (stereo not drawn) [compound 654]
3.31[a] | CCCCCn1cc(CNC(=O)C2(C)CC(c3ccc4ncc(Br)cc4c3)=NO2)c(C)n1 (stereo not drawn) [compound 655]
2.64[a] | C#Cc1cnc2ccc(C3=NOC(C)(C(=O)NCc4cn(CCCC)nc4C)C3)cc2c1 (stereo not drawn) [compound 656]
2.96[a] | CCCCn1cc(CNC(=O)C2(C)CC(c3ccc4ncc(Br)cc4c3)=NO2)c(C)n1 (stereo not drawn) [compound 657]
3.50[a] | C#Cc1cnc2ccc(C3=NOC(C)(C(=O)N(OC)C(C)CC)C3)cc2c1 (stereo not drawn) [compound 658]
3.96[a] | CCC(C)N(OC)C(=O)C1(C)CC(c2ccc3ncc(Br)cc3c2)=NO1 (stereo not drawn) [compound 659]
2.07[a] | C#Cc1cnc2ccc(C3=NOC(C)(C(=O)NCc4cccc(C(C)C)n4)C3)cc2c1 (stereo not drawn) [compound 660]
2.13[a] | CC1(C(=O)NCc2ncccn2)CC(c2ccc3ncc(Br)cc3c2)=NO1 (stereo not drawn) [compound 661]
2.51[a] | Cc1cc(C)nc(CNC(=O)C2(C)CC(c3ccc4ncc(Br)cc4c3)=NO2)n1 (stereo not drawn) [compound 662]
1.78[a] | C#Cc1cnc2ccc(C3=NOC(C)(C(=O)NCc4ccncn4)C3)cc2c1 (stereo not drawn) [compound 663]

log P | SMILES
1.49[a] | COc1ccnc(CNC(=O)C2(C)CC(c3ccc4ncc(Br)cc4c3)=NO2)c1 (stereo not drawn) [compound 664]
2.77[a] | C#Cc1cnc2ccc(C3=NOC(C)(C(=O)NCc4cccc(OC)n4)C3)cc2c1 (stereo not drawn) [compound 665]
2.20[a] | COc1ccc(CNC(=O)C2(C)CC(c3ccc4ncc(Br)cc4c3)=NO2)nc1 (stereo not drawn) [compound 666]
3.11[a] | COc1cccc(CNC(=O)C2(C)CC(c3ccc4ncc(Br)cc4c3)=NO2)n1 (stereo not drawn) [compound 667]
2.26[a] | C#Cc1cnc2ccc(C3=NOC(C)(C(=O)NCc4cn(C5CC5)nc4C)C3)cc2c1 (stereo not drawn) [compound 668]
2.52[a] | Cc1nn(C2CC2)cc1CNC(=O)C1(C)CC(c2ccc3ncc(Br)cc3c2)=NO1 (stereo not drawn) [compound 669]
1.40[a] | COc1ccncc1CNC(=O)C1(C)CC(c2ccc3ncc(Br)cc3c2)=NO1 (stereo not drawn) [compound 670]
2.54[a] | COc1cc(CNC(=O)C2(C)CC(c3ccc4ncc(Br)cc4c3)=NO2)ccn1 (stereo not drawn) [compound 671]
1.27[a] | C#Cc1cnc2ccc(C3=NOC(C)(C(=O)NCc4cnccc4OC)C3)cc2c1 (stereo not drawn) [compound 672]
1.56[a] | COc1cnccc1CNC(=O)C1(C)CC(c2ccc3ncc(Br)cc3c2)=NO1 (stereo not drawn) [compound 673]
2.26[a] | C#Cc1cnc2ccc(C3=NOC(C)(C(=O)NCc4ccnc(OC)c4)C3)cc2c1 (stereo not drawn) [compound 674]
2.28[a] | COc1ccc(CNC(=O)C2(C)CC(c3ccc4ncc(Br)cc4c3)=NO2)nn1 (stereo not drawn) [compound 675]
1.40[a] | C#Cc1cnc2ccc(C3=NOC(C)(C(=O)NCc4ccncc4OC)C3)cc2c1 (stereo not drawn) [compound 676]
1.34[a] | C#Cc1cnc2ccc(C3=NOC(C)(C(=O)NCc4cc(OC)ccn4)C3)cc2c1 (stereo not drawn) [compound 677]
2.82[a] | COc1ncccc1CNC(=O)C1(C)CC(c2ccc3ncc(Br)cc3c2)=NO1 (stereo not drawn) [compound 678]
2.66[a] | COc1ccc(CNC(=O)C2(C)CC(c3ccc4ncc(Br)cc4c3)=NO2)cn1 (stereo not drawn) [compound 679]

same assay, conditions: HPLC on reversed phase columns, method [a]: pH 2.7, 0.1% formic acid in water and acetonitrile, linear gradient 10% to 95% acetonitrile

log P | SMILES
2.52[a] | C#Cc1cnc2ccc(C3=NOC(C)(C(=O)NCc4cccnc4OC)C3)cc2c1 (stereo not drawn) [compound 680]
2.37[a] | C#Cc1cnc2ccc(C3=NOC(C)(C(=O)NCc4ccc(OC)nc4)C3)cc2c1 (stereo not drawn) [compound 681]
1.29[a] | C#Cc1cnc2ccc(C3=NOC(C)(C(=O)NCc4cnccc4C)C3)cc2c1 (stereo not drawn) [compound 682]
1.29[a] | C#Cc1cnc2ccc(C3=NOC(C)(C(=O)NCc4ccncc4C)C3)cc2c1 (stereo not drawn) [compound 683]
1.40[a] | Cc1cc(CNC(=O)C2(C)CC(c3ccc4ncc(Br)cc4c3)=NO2)ccn1 (stereo not drawn) [compound 684]
